# Experimental data published in patent US5516797A, “Immunosuppressive compounds” (Vertex Pharmaceuticals, Incorporated, priority 1994, dated 1996).
# Legend:
# [1] = target: FK-506 binding protein (FKBP) (Homo sapiens, UniProt P62942); assay: Inhibition of PPIase (rotamase) enzyme activity of FKBP (apparent Ki); type: biochemical; conditions: substrate N-succinylAla-Ala-Pro-Phe-p-nitroanilide, chymotrypsin-coupled
# Text: The inhibition of the PPIase (rotamase) enzyme activity of the FKBP (apparent "Ki" values) can also be measured according to the methods described by either Harding, M. W. et al., Nature 341:758-760 (1989) or Siekierka, J. J. et al., Nature 341:755-757 (1989). The cis-trans isomerization of the proline-alanine peptide bond in a model substrate, N-succinylAla-Ala-Pro-Phe-p-nitroanilide, is monitored spectrophotometrically in a coupled assay with chymotrypsin, which releases 4-nitroanilide from the trans form of the substrate. Fischer, G. et al., Nature 337:476-478 (1989). The inhibitory effect of the addition of different concentrations of inhibitor on the extent of the reaction is determined, and analysis of the change in first order rate constant as a function of inhibitor concentration yields an estimate of the apparent Ki value.
# [2] = system: human peripheral blood lymphocytes; assay: Mitogenesis assay PMA: inhibition of proliferation of human PBLs; type: cell-based; conditions: Lymphocyte, PMA (10 ng/ml) plus ionomycin (250 ng/ml), 48 h incubation
# Procedure: (§1) PMA and OKT3mitogens used to stimulate proliferation of human peripheral
# (§2) blood lymphocytes (PBC). Compounds are evaluated on their ability to
# (§3) Fresh peripheral blood lymphocytes (PBLs) from LeukoPak cells or whole blood from random normal blood donors (tested HIV-negative and hepatitis negative) are isolated and separated by density centrifugation over Histopaque 1077 (Sigma Chemical Co., St. Louis, Mo.). The murine CTLL cytotoxic T cell line and the human Jurkat T cell line are from ATCC (CTLL-2 ATCC TIB214, JURKAT CLONE E6-1 ATCC TIBl52). The human allogeneic B cell lines used for activation of the fresh PBLs are EBV-transformed lymphocytes from normal healthy adult donors with two completely different HLAhaplotypes. All cell lines were routinely tested for the presence of Mycolasma contamination using the GibcoMycotect test kit and are Mycolasma-free. Culture medium consksts of RPMI 1640 (Gibco, Grand Island, N.Y.) containing penicillin (50 U/ml) and streptomycin (50 μg/ml), L-glutamine 2 mM, 2 mercaptoethanol (5×10^-5), 10% heat-inactivated FCS and 10 mM HEPES.
# (§4) All chemical stocks were dissolved in DMSO.
# (§5) Mitogenesis Assays ("PMA" and "OKT3")
# (§6) After 48 h incubation (37° C., 5% CO2), cells were pulsed with 1 μCi of ^3 H-thymidine, harvested 24 h later with a Tom Tek cell harvester, and counted in LKB β-scintillation counter.
# [3] = system: human peripheral blood lymphocytes; assay: Mitogenesis assay OKT3: inhibition of proliferation of human PBLs; type: cell-based; conditions: Lymphocyte, OKT3 (10^-4 dilution final), 48 h incubation
# Procedure: as §1, §2, §3, §4, §5, §6
# [4] = system: PBLs stimulated with LB human viral transformed B lymphoblastoid cells; assay: MLR bioassay LB: inhibition of proliferation in mixed lymphocyte reaction; type: cell-based; conditions: Lymphoblastoid cell, pulsed on day 6, harvested 24 h later
# Procedure: (§7) LB and JVMhuman viraltransformed B lymphoblastoid cell lines stimulated t
# (§8) proliferate in a mixed lymphocyte reaction (MLR). The compounds are
# (§9) evaluated on their ability to inhibit this proliferation.
# as §3, §4
# (§10) MLR Bioassays ("LB" and "JVM")
# (§11) Antigen activated proliferation of PBLs in a primary mixed lymphocyte reaction was assessed in the presence or absence of different concentrations of tested compounds and control drugs. 5×10^4 fresh PBLs were stimulated with 5×10^3 of Mitomycin C treated-allogeneic EBV-transformed β-lymphoglastoid cells, IB and JVM, in a final volume of 200 μl per well in 96-well round-bottomed plates (Mishell, B. B. and S. M. Shiigi, Selected Methods in Cellular Immunology W. H. Freeman and Co., San Francisco, Calif. (1980); Nelson, P. A. et al., Transplantation 50:286 (1990)). Cultures were pulsed on day 6, harvested 24 h later and counted as in previous section.
# [5] = system: PBLs stimulated with JVM human viral transformed B lymphoblastoid cells; assay: MLR bioassay JVM: inhibition of proliferation in mixed lymphocyte reaction; type: cell-based; conditions: Lymphoblastoid cell, pulsed on day 6, harvested 24 h later
# Procedure: as §7, §8, §9, §3, §4, §10, §11
# Sequence of FK-506 binding protein (FKBP) (P62942 whole entry): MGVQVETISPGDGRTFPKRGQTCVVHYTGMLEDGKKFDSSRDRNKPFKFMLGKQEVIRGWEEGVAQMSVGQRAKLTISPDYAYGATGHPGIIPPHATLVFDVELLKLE
structure (smiles),measurement,setting,value
COc1cc(C(=O)C(=O)N2CCCC[C@H]2C(=O)OCCc2cccc3ccccc23)cc(OC)c1OC [Compound 80],Ki,[1],0.5 µM
same,IC50,[2],3 µM
same,IC50,[3],4 µM
same,IC50,[4],10 µM
same,IC50,[5],10 µM
COc1cc(C(=O)C(=O)N2CCCC[C@H]2C(=O)OCc2ccc(Oc3ccccc3)cc2)cc(OC)c1OC [Compound 73],Ki,[1],0.8 µM
same,IC50,[2],8 µM
same,IC50,[3],> 10 µM
same,IC50,[4],4.5 µM
same,IC50,[5],6 µM
COc1ccc(COCc2coc(C(=O)C(=O)N3CCCC[C@H]3C(=O)OCCCCc3ccccc3)c2)cc1 [Compound 103],Ki,[1],0.7 µM
same,IC50,[2],7 µM
same,IC50,[3],10 µM
same,IC50,[4],10 µM
same,IC50,[5],> 10 µM
CC(C)Oc1cccc(C(=O)C(=O)N2CCCC[C@H]2C(=O)OCc2ccccc2)c1 [Compound 66],Ki,[1],0.5 µM
same,IC50,[2],> 10 µM
same,IC50,[3],> 10 µM
same,IC50,[4],> 10 µM
same,IC50,[5],> 10 µM
CCCCOc1cccc(C(=O)C(=O)N2CCCC[C@H]2C(=O)OCCCc2ccccc2)c1 [Compound 92],Ki,[1],1.4 µM
same,IC50,[2],9 µM
same,IC50,[3],> 10 µM
same,IC50,[4],> 10 µM
same,IC50,[5],> 10 µM
C/C(=C\c1ccccc1)COC(=O)[C@@H]1CCCCN1C(=O)C(=O)c1ccccc1 [Compound 23],Ki,[1],1.5 µM
same,IC50,[2],> 10 µM
same,IC50,[3],> 10 µM
same,IC50,[4],> 10 µM
same,IC50,[5],> 10 µM
CC(C)CC(=O)C(=O)N1CCCC[C@H]1C(=O)OCc1ccccc1 [Compound 7],Ki,[1],0.9 µM
same,IC50,[2],> 10 µM
same,IC50,[3],> 10 µM
same,IC50,[4],> 10 µM
same,IC50,[5],> 10 µM
COc1cc(C(=O)C(=O)N2CCCC[C@H]2C(=O)OCC=CCc2ccccc2)cc(OC)c1OC [Compound 86],Ki,[1],0.8 µM
same,IC50,[2],9 µM
same,IC50,[3],> 10 µM
same,IC50,[4],> 10 µM
same,IC50,[5],> 10 µM
CC(C)Oc1cccc(C(=O)C(=O)N2CCCC[C@H]2C(=O)OCCCCc2ccccc2)c1 [Compound 76],Ki,[1],0.1 µM
same,IC50,[2],5 µM
same,IC50,[3],10 µM
same,IC50,[4],9 µM
same,IC50,[5],> 10 µM
CC(C)(C)C(=O)C(=O)N1CCCC[C@H]1C(=O)OCCCCc1ccccc1 [Compound 104],Ki,[1],0.18 µM
same,IC50,[2],4 µM
same,IC50,[3],> 10 µM
same,IC50,[4],> 10 µM
same,IC50,[5],> 10 µM
C/C(=C\[C@H]1CC[C@H](O)CC1)COC(=O)[C@@H]1CCCCN1C(=O)C(=O)c1ccccc1 [Compound 26],Ki,[1],0.5 µM
same,IC50,[2],> 10 µM
same,IC50,[3],6.5 µM
same,IC50,[4],> 10 µM
same,IC50,[5],> 10 µM
CCC(=O)C(=O)N1CCCC[C@H]1C(=O)OCCCCc1ccccc1 [Compound 105],Ki,[1],1.6 µM
same,IC50,[2],> 10 µM
same,IC50,[3],> 10 µM
same,IC50,[4],> 10 µM
same,IC50,[5],> 10 µM
COc1cc(C(=O)C(=O)N2CCCC[C@H]2C(=O)OCCC=Cc2ccccc2)cc(OC)c1OC [Compound 87],Ki,[1],0.5 µM
same,IC50,[2],7 µM
same,IC50,[3],> 10 µM
same,IC50,[4],> 10 µM
same,IC50,[5],> 10 µM
"C/C(=C\[C@H]1CC[C@@H](O)CC1)COC(=O)[C@@H]1CCCCN1C(=O)C(=O)c1ccccc1 [Compound 25, (E)-3-[cis-4-(hydroxycyclohexyl)]-2-methylprop-2-enyl N-(phenylglyoxyl)-pipecolate]",Ki,[1],0.6 µM
same,IC50,[2],> 10 µM
same,IC50,[3],> 10 µM
same,IC50,[4],> 10 µM
same,IC50,[5],> 10 µM
COc1cc(C(=O)C(=O)N2CCCC[C@H]2C(=O)OCc2ccc(I)cc2)cc(OC)c1OC [Compound 78],Ki,[1],1.4 µM
same,IC50,[2],> 10 µM
same,IC50,[3],> 10 µM
same,IC50,[4],> 10 µM
same,IC50,[5],> 10 µM
CCCCOc1cccc(C(=O)C(=O)N2CCCC[C@H]2C(=O)OCc2ccccc2)c1 [Compound 75],Ki,[1],0.36 µM
same,IC50,[2],8 µM
same,IC50,[3],> 10 µM
same,IC50,[4],9 µM
same,IC50,[5],> 10 µM
CCOc1cccc(C(=O)C(=O)N2CCCC[C@H]2C(=O)OCc2ccccc2)c1 [Compound 60],Ki,[1],0.56 µM
same,IC50,[2],> 10 µM
same,IC50,[3],> 10 µM
same,IC50,[4],> 10 µM
same,IC50,[5],> 10 µM
